Source: patent US20260285888A1, “HETEROCYCLIC COMPOUND AND USE THEREOF” (OTSUKA PHARMACEUTICAL CO., LTD., priority 2023, published 2026)

Assay: Study for confirmation of conversion to brexpiprazole in a buffer (stability of the evaluation compounds)
Type: physicochemical
Conditions: for Concentration of brexpiprazole formed / Concentration of evaluation compound decreased: in buffer, average of duplicate; for Concentration of brexpiprazole formed: 60-minute reaction sample; for Concentration of evaluation compound decreased: decrease in 60-minute vs 0-minute reaction sample; for stability in the buffer / conversion to brexpiprazole (in words): Tris-hydrochloric acid buffer pH 7.5, 37° C., 60 minutes, 1 μmol/L
Experimental: The conversion from the evaluation compounds to brexpiprazole in a buffer (i.e., the stability of the evaluation compounds) was evaluated.
The Example 1 compound was dissolved in acetonitrile/water (1:1, v/v) to 10 mmol/L and further diluted with acetonitrile/water (1:1, v/v) to 100 μmol/L for use.
The other Example compounds and the Reference Example 5 compound to Reference Example 7 compound were each dissolved in DMSO to 10 mmol/L and further diluted with acetonitrile to 100 μmol/L for use, except for the following compounds.
The compounds of Examples 52, 95, 96, 117, and 130 (EX 52, EX 95, EX 96, EX 117, and EX 130) were dissolved in acetonitrile/water (8:2, v/v) to 10 mmol/L and further diluted with acetonitrile to 100 μmol/L for use.
The compound of Example 97 (EX 97) was dissolved in acetonitrile/water (8:2, v/v) to 10 mmol/L and further diluted with acetonitrile/water (8:2, v/v) to 100 μmol/L for use.
The compounds of Examples 15 and 116 (EX 15 and EX 116) were dissolved in DMSO to 1 mmol/L and further diluted with acetonitrile to 100 μmol/L for use.
The reaction was conducted by preparing each reaction solution such that the final concentration of each component was as follows. The test was conducted in duplicate.
For the compounds of Examples 1 to 8, 10 to 19, 26 to 27, 37, 50, 87 to 89, 91, 116, 121, 123, 150, and 151 (EX 1 to EX 8, EX 10 to EX 19, EX 26 to EX 27, EX 37, EX 50, EX 87 to EX 89, EX 91, EX 116, EX 121, EX 123, EX 150, and EX 151), and the compounds of Reference Examples 5 to 7 (REX 5 to REX 7), the reaction solution without the evaluation compound (198 μl) was pre-incubated at 37° C. for 3 minutes, and then each of the evaluation compound solutions (2 μl) was added and stirred; thereafter, the reaction was started at 37° C. At 0 minutes or 60 minutes after the start of the reaction, the reaction was stopped by adding and stirring a reaction stop solution (1000 μl) composed of acetonitrile/isopropanol (4:1, v/v) containing internal standard substances. However, the 0-minute reaction sample (198 μl) was prepared by adding the evaluation compound (2 μl) after adding the reaction stop solution (1000 μl). The samples after stopping the reaction were used as the measurement samples. Calibration curve samples with the same composition were prepared (final concentrations of the evaluation compounds and brexpiprazole: 0.01, 0.1, and 1 μmol/L, with the proviso that for the evaluation compounds only, the 0-minute reaction samples were also used as calibration curve samples for 1 μmol/L).
For the compounds of Examples 24 to 25, 28 to 29, 32 to 36, 40 to 49, 51 to 60, 62 to 64, 66 to 77, 80 to 86, 90, 92 to 111, 113, 115, 117 to 120, 122, 124 to 130, 132 to 147, and 152 to 160 (EX 24 to EX 25, EX 28 to EX 29, EX 32 to EX 36, EX 40 to EX 49, EX 51 to EX 60, EX 62 to EX 64, EX 66 to EX 77, EX 80 to EX 86, EX 90, EX 92 to EX 111, EX 113, EX 115, EX 117 to EX 120, EX 122, EX 124 to EX 130, EX 132 to EX 147, and EX 152 to EX 160), the reaction solution without the evaluation compound (148.5 μl) was pre-incubated at 37° C. for 3 minutes, and then each of the evaluation compound solutions (1.5 μl) was added and stirred; thereafter, the reaction was started at 37° C. At 0 minutes or 60 minutes after the start of the reaction, the reaction was stopped by adding and stirring a reaction stop solution (600 μl) composed of acetonitrile/isopropanol (4:1, v/v) containing internal standard substances. However, the 0-minute reaction sample (148.5 μl) was prepared by adding the evaluation compound (1.5 μl) after adding the reaction stop solution (600 μl). The samples after stopping the reaction were used as the measurement samples. Calibration curve samples with the same composition were prepared (final concentrations of the evaluation compounds and brexpiprazole: 0.01, 0.1, and 1 μmol/L, with the proviso that for the evaluation compounds only, the 0-minute reaction samples were also used as calibration curve samples for 1 μmol/L). […]

SMILES: O=c1ccc2ccc(OCCCC[N+]3(COP(=O)([O-])OCC#CCCl)CCN(c4cccc5sccc45)CC3)cc2[nH]1 [EX 63, (4-(benzo[b]thiophen-4-yl)-1-(4-((2-oxo-1,2-dihydroquinolin-7-yl)oxy)butyl)piperazin-1-ium-1-yl)methyl (4-chlorobut-2-yn-1-yl) phosphate]
- Concentration of brexpiprazole formed: 0 nM
- Concentration of evaluation compound decreased: 20 nM

SMILES: COc1ccc(C(=O)OCCCCCCOP(=O)([O-])OC[N+]2(CCCCOc3ccc4ccc(=O)[nH]c4c3)CCN(c3cccc4sccc34)CC2)cc1 [EX 58, (4-(benzo[b]thiophen-4-yl)-1-(4-((2-oxo-1,2-dihydroquinolin-7-yl)oxy)butyl)piperazin-1-ium-1-yl)methyl (6-((4-methoxybenzoyl)oxy)hexyl) phosphate]
- Concentration of brexpiprazole formed: 0 nM
- Concentration of evaluation compound decreased: 40 nM

SMILES: CC(C)OP(=O)([O-])OC[N+]1(CCCCOc2ccc3ccc(=O)[nH]c3c2)CCN(c2cccc3sccc23)CC1 [EX 5, (4-(benzo[b]thiophen-4-yl)-1-(4-((2-oxo-1,2-dihydroquinolin-7-yl)oxy)butyl)piperazin-1-ium-1-yl)methyl isopropyl phosphate]
- Concentration of brexpiprazole formed: 0 nM
- Concentration of evaluation compound decreased: 70 nM

SMILES: CCCCCCCC(=O)OCOP(=O)([O-])OC[N+]1(CCCCOc2ccc3ccc(=O)[nH]c3c2)CCN(c2cccc3sccc23)CC1 [EX 27, (4-(benzo[b]thiophen-4-yl)-1-(4-((2-oxo-1,2-dihydroquinolin-7-yl)oxy)butyl)piperazin-1-ium-1-yl)methyl ((octanoyloxy)methyl) phosphate]
- Concentration of brexpiprazole formed: 0 nM
- Concentration of evaluation compound decreased: 0 nM

SMILES: CCC(C)(C)C(=O)OCOP(=O)([O-])OC[N+]1(CCCCOc2ccc3ccc(=O)[nH]c3c2)CCN(c2cccc3sccc23)CC1 [EX 122, (4-(benzo[b]thiophen-4-yl)-1-(4-((2-oxo-1,2-dihydroquinolin-7-yl)oxy)butyl)piperazin-1-ium-1-yl)methyl (((2,2-dimethylbutanoyl)oxy)methyl) phosphate]
- Concentration of brexpiprazole formed: 0 nM
- Concentration of evaluation compound decreased: 50 nM

SMILES: CCCCCCOC(=O)OC[N+]1(CCCCOc2ccc3ccc(=O)[nH]c3c2)CCN(c2cccc3sccc23)CC1.[I-] [REX 7, 4-(Benzo[b]thiophen-4-yl)-1-((((hexyloxy)carbonyl)oxy)methyl)-1-(4-((2-oxo-1,2-dihydroquinolin-7-yl)oxy)butyl)piperazin-1-ium iodide, reference compound]
- Concentration of brexpiprazole formed: 240 nM
- Concentration of evaluation compound decreased: 270 nM

SMILES: O=c1ccc2ccc(OCCCC[N+]3(COP(=O)([O-])OCCCO)CCN(c4cccc5sccc45)CC3)cc2[nH]1 [EX 6, (4-(benzo[b]thiophen-4-yl)-1-(4-((2-oxo-1,2-dihydroquinolin-7-yl)oxy)butyl)piperazin-1-ium-1-yl)methyl (3-hydroxypropyl) phosphate]
- Concentration of brexpiprazole formed: 0 nM
- Concentration of evaluation compound decreased: -110 nM

SMILES: CC(C)NC(=O)CCCCCCCCC(=O)OCOP(=O)([O-])OC[N+]1(CCCCOc2ccc3ccc(=O)[nH]c3c2)CCN(c2cccc3sccc23)CC1 [EX 76, (4-(benzo[b]thiophen-4-yl)-1-(4-((2-oxo-1,2-dihydroquinolin-7-yl)oxy)butyl)piperazin-1-ium-1-yl)methyl (((10-(isopropylamino)-10-oxodecanoyl)oxy)methyl) phosphate]
- Concentration of brexpiprazole formed: 0 nM
- Concentration of evaluation compound decreased: 0 nM

SMILES: CCCCOP(=O)([O-])OC[N+]1(CCCCOc2ccc3ccc(=O)[nH]c3c2)CCN(c2cccc3sccc23)CC1 [EX 89, (4-(benzo[b]thiophen-4-yl)-1-(4-((2-oxo-1,2-dihydroquinolin-7-yl)oxy)butyl)piperazin-1-ium-1-yl)methyl butyl phosphate]
- Concentration of brexpiprazole formed: 0 nM
- Concentration of evaluation compound decreased: -70 nM

SMILES: O=c1ccc2ccc(OCCCC[N+]3(COP(=O)([O-])OCC(F)F)CCN(c4cccc5sccc45)CC3)cc2[nH]1 [EX 115, (4-(benzo[b]thiophen-4-yl)-1-(4-(2-oxo-1,2-dihydroquinolin-7-yl)oxy)butyl)piperazin-1-ium-1-yl)methyl (2,2-difluoroethyl) phosphate]
- Concentration of brexpiprazole formed: 0 nM
- Concentration of evaluation compound decreased: 50 nM

SMILES: CCC(=O)OC[N+]1(CCCCOc2ccc3ccc(=O)[nH]c3c2)CCN(c2cccc3sccc23)CC1 [Reference Example 5, reference compound]
- stability in the buffer / conversion to brexpiprazole (in words): clearly degraded to brexpiprazole

SMILES: CCOCCOC(=O)[C@@H](C)OP(=O)([O-])OC[N+]1(CCCCOc2ccc3ccc(=O)[nH]c3c2)CCN(c2cccc3sccc23)CC1 [EX 109, (R)-(4-(benzo[b]thiophen-4-yl)-1-(4-((2-oxo-1.2-dihydroquinolin-7-yl)oxy)butyl)piperazin-1-ium-1-yl)methyl (1-(2-ethoxyethoxy)-1-oxopropan-2-yl) phosphate]
- Concentration of brexpiprazole formed: 0 nM
- Concentration of evaluation compound decreased: -20 nM

SMILES: CC(C)NC(=O)CCCC(=O)OCOP(=O)([O-])OC[N+]1(CCCCOc2ccc3ccc(=O)[nH]c3c2)CCN(c2cccc3sccc23)CC1 [EX 73, (4-(benzo[b]thiophen-4-yl)-1-(4-((2-oxo-1,2-dihydroquinolin-7-yl)oxy)butyl)piperazin-1-ium-1-yl)methyl (((5-(isopropylamino)-5-oxopentanoyl)oxy)methyl) phosphate]
- Concentration of brexpiprazole formed: 0 nM
- Concentration of evaluation compound decreased: 130 nM

SMILES: COc1ccc(COC(=O)CC(C)(C)CC(=O)OCOP(=O)([O-])OC[N+]2(CCCCOc3ccc4ccc(=O)[nH]c4c3)CCN(c3cccc4sccc34)CC2)cc1 [EX 72, (4-(benzo[b]thiophen-4-yl)-1-(4-((2-oxo-1,2-dihydroquinolin-7-yl)oxy)butyl)piperazin-1-ium-1-yl)methyl (((5-((4-methoxybenzyl)oxy)-3,3-dimethyl-5-oxopentanoyl)oxy)methyl) phosphate]
- Concentration of brexpiprazole formed: 0 nM
- Concentration of evaluation compound decreased: 150 nM

SMILES: CCCCCC(=O)OC[N+]1(CCCCOc2ccc3ccc(=O)[nH]c3c2)CCN(c2cccc3sccc23)CC1 [Reference Example 6, reference compound]
- stability in the buffer / conversion to brexpiprazole (in words): clearly degraded to brexpiprazole

SMILES: CC(C)(C)OP(=O)([O-])OC[N+]1(CCCCOc2ccc3ccc(=O)[nH]c3c2)CCN(c2cccc3sccc23)CC1 [EX 4, (4-(benzo[b]thiophen-4-yl)-1-(4-((2-oxo-1,2-dihydroquinolin-7-yl)oxy)butyl)piperazin-1-ium-1-yl)methyl tert-butyl phosphate]
- Concentration of brexpiprazole formed: 0 nM
- Concentration of evaluation compound decreased: 20 nM
